Measurements published in patent US20260216112A1, “ACETYLCYSTEINE-STABILIZED GOLD NANOCLUSTERS FOR ACUTE KIDNEY INJURY, AND PREPARATION METHOD AND APPLICATION THEREOF” (priority 2021, published 2026).

Tests used:
[1] = hydroxyl radical antioxidant capacity (HORAC) kit; assay type: biochemical; conditions: concentration of 100 μg/mL; FIG. 4
[2] = superoxide anion removal, SOD assay kit; assay type: biochemical; conditions: concentration of 100 μg/mL; FIG. 5
Protocol: The efficiency of Au NCs-NAC in removing superoxide anions at different concentrations ([…]) was determined using the SOD assay kit (Sigma-Aldrich, USA). The test was conducted according to the instructions provided by the manufacture.

[3] = ABTS free radical cation discoloration method; assay type: biochemical; conditions: concentration of […] (so in the source); absorbance at 734 nm; FIG. 6
Protocol: The test for eliminating ABTS (2,2′-azino-bis(3-ethylbenzothiazoline-6-sulfonic acid)) free radicals by Au NCs-NAC.
The free radicals eliminating ability of Au NCs-NAC was tested using the ABTS free radical cation discoloration method. ABTS (7 mM) was dissolved in water, and 2.45 mM potassium persulfate was added to react for 12 hours to produce ABTS free radical cations (⋅ABTS+). Then, the absorbance values of the pure ⋅ABTS+solution (AB) and the mixed solution of different concentrations (12.5-100 μg/mL) of Au NCs-NAC and ⋅ABTS+ were measured at 734 nm. The formula for calculating ABTS eliminating efficiency is [(AB AP)/AB]*100. All measurements were performed in triplicate.

TNF-α = test: in vitro anti-inflammatory study, TNF-α ELISA; assay type: cell-based; conditions: LPS 400 ng/ml stimulation, RAW264.7 macrophage supernatant, FIG. 9
Description: (§1) Embodiment 3: Au NCs-NAC cytotoxicity and protection of kidney cells by eliminating various reactive oxygen species/reactive nitrogen species, and the standard MTT method was used to evaluate the effect of Au NCs-NAC on the survival rate of 293T renal embryonic cells. Furthermore, ELISA (enzyme-linked immunosorbent assay) kits for TNF-α and IL-6 are adopted to evaluate the levels of inflammatory factors in the cells.
(§2) For in vitro anti-inflammatory studies, both macrophages and 293T renal embryonic cells were seeded into 96-well plates. Then, 293T renal embryonic cells were treated with 400 ng/ml lipopolysaccharide (LPS) for 1 h. Then, the supernatant of 293T renal embryonic cell culture was transferred to a 96-well plate to culture RAW264.7 macrophages overnight. Finally, the TNF-α/IL-6 ELISA kit was used to detect the concentrations of TNF-α and IL-6 in the RAW264.7 macrophage supernatant.

IL-6 = test: in vitro anti-inflammatory study, IL-6 ELISA; assay type: cell-based; conditions: LPS 400 ng/ml stimulation, RAW264.7 macrophage supernatant, FIG. 10
Description: as §1, §2

[4] = test system: glycerol-induced acute renal failure mice; test: glycerol-induced acute renal failure mice, serum creatinine and blood urea nitrogen; assay type: in vivo; conditions: 4 mg/kg injected 2 hours after glycerol, serum at 24 hours, versus phosphate buffer
Protocol: All experimental operations were performed in accordance with the animal use and care system approved by the Clinical Center Animal Care and Use Committee. Female athymic mice (six weeks, 20-25 g) were injected with 8 mL/kg 50% glycerol solution intramuscularly into the hind legs to establish a mice model of acute renal failure. After 2 hours, the small molecule drug acetylcysteine or Au NCs-NAC was injected.
Mice were randomly divided into 5 groups: (1) healthy mice injected with phosphate buffer; (2) healthy mice injected with Au NCs-NAC; (3) glycerol-induced acute renal failure mice injected with phosphate buffer; (4) glycerol-induced acute renal failure mice injected with Au NCs-NAC; (5) glycerol-induced acute renal failure mice injected with acetylcysteine in the same dose of Au NCs-NAC. Healthy mice and mice with glycerol-induced acute renal failure were euthanized 24 hours later. The blood of the mice was centrifuged to obtain serum, and the creatinine and blood urea nitrogen contents were measured. The phosphate buffer used for injection was 100 μL, the injection dose of Au NCs-NAC was 4 mg/kg, and the injection dose of acetylcysteine was 4 mg/kg.

## CC(=O)N[C@@H](CS)C(=O)O [acetylcysteine]
[1]
  hydroxyl radicals eliminated: 47.2%
[2]
  superoxide anions eliminated: 6%
[3]
  ⋅ABTS+ eliminated (ABTS eliminating efficiency): 68.9%
TNF-α
  production of inflammatory factor TNF-α: not able to achieve the same
IL-6
  production of inflammatory factor IL-6: not able to achieve the same
[4]; FIG. 11
  serum blood urea nitrogen level: cannot effectively reduce
[4]; FIG. 12
  serum creatinine level: cannot effectively reduce
